Laboratory results taken from patent US20140249139A1, “Quinazoline Derivatives” (NOVARTIS AG, priority 2011, published 2014).

Columns and labels:
[1] = target: T1, PI3K alpha (Homo sapiens, UniProt P42336); assay: Enzymatic PI3K alpha isoform inhibition (lipid kinase activity, Kinase-Glo); type: biochemical; conditions: enzymatic assay
T1 construct: for the p110-a subunit (with a deletion of the first 20 amino acids) are generated; His tag (C); made in house; host or cells: baculovirus BV1075; Tn5 (Trichoplusia ni) or TiniPro insect cells
Description: (§1) The components of the assay are added per well as follows:
(§2) IC50 is determined by a four parameter curve fitting routine that comes along with “excel fit”.
(§3) Yet alternatively, for an ATP depletion assay, compounds of the formula I to be tested are dissolved in DMSO and directly distributed into a white 384-well plate at 0.5 μl per well. To start the reaction, 10 μl of 10 nM PI3 kinase and 5 μg/ml 1-alpha-phosphatidylinositol (PI) are added into each well followed by 10 μl of 2 μM ATP. The reaction is performed until approx 50% of the ATP is depleted, and then stopped by the addition of 20 μl of Kinase-Glo solution (Promega Corp., Madison, Wis., USA). The stopped reaction is incubated for 5 minutes and the remaining ATP is then detected via luminescence. IC50 values are then determined.

[2] = target: T2, PI3K delta (Homo sapiens, UniProt O00329); assay: Enzymatic PI3K delta isoform inhibition (lipid kinase activity, Kinase-Glo); type: biochemical; conditions: enzymatic assay
T2 construct: for the full-length p110-d subunit are generated and fused by overlapping PCR; His tag (C); made in house; host or cells: baculovirus BV1060; Tn5 (Trichoplusia ni) or TiniPro insect cells
Description: as §1, §2, §3

T1 sequence (P42336 with tags, fused parts or gaps limits assumed, species assumed): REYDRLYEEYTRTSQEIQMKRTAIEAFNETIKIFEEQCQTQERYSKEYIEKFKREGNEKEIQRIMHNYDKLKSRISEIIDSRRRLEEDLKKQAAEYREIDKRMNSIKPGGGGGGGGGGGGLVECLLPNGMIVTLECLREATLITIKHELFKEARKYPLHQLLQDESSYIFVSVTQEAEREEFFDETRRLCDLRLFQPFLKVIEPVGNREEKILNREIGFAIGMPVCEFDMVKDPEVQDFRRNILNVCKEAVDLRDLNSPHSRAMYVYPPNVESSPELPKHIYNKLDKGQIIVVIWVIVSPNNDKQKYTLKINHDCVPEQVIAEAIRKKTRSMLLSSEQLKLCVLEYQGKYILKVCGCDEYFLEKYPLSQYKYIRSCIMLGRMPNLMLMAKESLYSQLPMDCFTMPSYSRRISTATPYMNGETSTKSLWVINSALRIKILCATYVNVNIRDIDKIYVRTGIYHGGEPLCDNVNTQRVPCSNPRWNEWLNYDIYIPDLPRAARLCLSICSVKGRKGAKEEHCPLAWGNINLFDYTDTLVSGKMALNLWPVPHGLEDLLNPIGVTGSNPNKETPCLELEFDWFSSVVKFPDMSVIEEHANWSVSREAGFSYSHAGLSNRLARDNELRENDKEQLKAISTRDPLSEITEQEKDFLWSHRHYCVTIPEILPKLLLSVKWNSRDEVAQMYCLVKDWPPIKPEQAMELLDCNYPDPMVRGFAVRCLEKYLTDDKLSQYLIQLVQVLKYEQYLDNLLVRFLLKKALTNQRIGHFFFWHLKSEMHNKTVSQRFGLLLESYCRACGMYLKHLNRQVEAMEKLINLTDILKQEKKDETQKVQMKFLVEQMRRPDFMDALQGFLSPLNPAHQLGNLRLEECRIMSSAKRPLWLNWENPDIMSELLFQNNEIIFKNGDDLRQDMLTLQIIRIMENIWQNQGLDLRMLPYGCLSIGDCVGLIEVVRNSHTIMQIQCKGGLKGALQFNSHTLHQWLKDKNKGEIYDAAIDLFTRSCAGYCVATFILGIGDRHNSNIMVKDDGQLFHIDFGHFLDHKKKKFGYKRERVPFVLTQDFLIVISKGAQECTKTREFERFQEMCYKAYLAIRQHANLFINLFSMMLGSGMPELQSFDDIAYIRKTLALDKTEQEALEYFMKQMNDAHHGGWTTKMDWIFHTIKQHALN
T2 sequence (O00329 with tags, fused parts or gaps limits assumed, species assumed): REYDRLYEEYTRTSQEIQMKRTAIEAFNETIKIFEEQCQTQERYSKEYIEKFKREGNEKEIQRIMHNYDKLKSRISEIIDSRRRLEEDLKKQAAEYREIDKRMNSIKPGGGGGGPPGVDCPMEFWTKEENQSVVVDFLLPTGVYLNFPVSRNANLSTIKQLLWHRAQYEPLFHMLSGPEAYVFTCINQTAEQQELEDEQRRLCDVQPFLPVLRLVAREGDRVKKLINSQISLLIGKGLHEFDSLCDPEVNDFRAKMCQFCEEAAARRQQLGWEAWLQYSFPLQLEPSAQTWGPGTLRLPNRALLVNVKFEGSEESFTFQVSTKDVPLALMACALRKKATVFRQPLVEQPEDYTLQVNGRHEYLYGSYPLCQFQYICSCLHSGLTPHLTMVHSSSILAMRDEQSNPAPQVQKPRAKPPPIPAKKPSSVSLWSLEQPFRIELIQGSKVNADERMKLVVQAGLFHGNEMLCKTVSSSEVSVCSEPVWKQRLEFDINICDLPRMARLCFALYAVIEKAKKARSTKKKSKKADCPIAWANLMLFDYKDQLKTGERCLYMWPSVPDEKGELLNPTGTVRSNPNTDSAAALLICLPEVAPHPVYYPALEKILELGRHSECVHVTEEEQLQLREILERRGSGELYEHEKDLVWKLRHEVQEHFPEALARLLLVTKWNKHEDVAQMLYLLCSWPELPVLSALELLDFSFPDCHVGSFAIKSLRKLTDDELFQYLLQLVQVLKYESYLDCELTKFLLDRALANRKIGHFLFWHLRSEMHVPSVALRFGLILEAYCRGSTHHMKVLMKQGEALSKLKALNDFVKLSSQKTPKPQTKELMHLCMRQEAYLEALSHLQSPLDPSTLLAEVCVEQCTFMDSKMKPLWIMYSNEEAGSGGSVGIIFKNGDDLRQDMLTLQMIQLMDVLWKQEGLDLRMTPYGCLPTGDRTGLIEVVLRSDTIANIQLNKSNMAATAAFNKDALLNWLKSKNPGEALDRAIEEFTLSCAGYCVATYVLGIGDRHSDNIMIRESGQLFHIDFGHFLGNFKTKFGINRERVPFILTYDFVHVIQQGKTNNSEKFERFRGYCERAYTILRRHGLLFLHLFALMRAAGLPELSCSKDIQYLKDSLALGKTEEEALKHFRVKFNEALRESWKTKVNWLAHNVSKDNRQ

Row | SMILES | IC50 [1] | IC50 [2]
1 | COc1ccc(-c2ccc3ncnc(-c4cncc(C(=O)N5CCOC(C)(C)C5)c4)c3c2)cc1C(F)(F)F [Example 66] | 763 nM | 9.5 nM
2 | COc1ccc(-c2ccc3ncnc(-c4cncc(C(=O)N5CCCN(C)CC5)c4)c3c2)cn1 [Example 76, {5-[6-(6-Methoxy-pyridin-3-yl)-quinazolin-4-yl]-pyridine-3-yl}-(4-methyl-[1,4]-diazepan-1-yl)-methanone] | 578 nM | 23.5 nM
3 | COc1ncc(-c2ccc3ncnc(-c4cncc(C(=O)N5CCOCC5)c4)c3c2)cc1C#N [Example 69] | 880 nM | 8 nM
4 | COc1ncc(-c2ccc3ncnc(-c4cccc(C(=O)N5C[C@@H]6C[C@H]5CN6C)c4)c3c2)cc1C(F)(F)F [Example 29] | 75 nM | 3 nM
5 | COc1ncc(-c2ccc3ncnc(-c4cccc(C(=O)N5CCOC(C)(C)C5)c4)c3c2)cn1 [Example 33] | 639 nM | 12 nM
6 | COc1ncc(-c2ccc3ncnc(-c4cncc(C(=O)N5CCN(C)C(C)(C)C5)c4)c3c2)cc1C(F)(F)F [Example 74] | 150 nM | 5 nM
7 | COc1ncc(-c2ccc3ncnc(-c4cncc(C(=O)N5CCN(C)CC5)c4)c3c2)cc1F [Example 55] | 193 nM | 9.25 nM
8 | COc1ccc(-c2ccc3ncnc(-c4cccc(C(=O)N5CCN(C(C)=O)C(C)(C)C5)c4)c3c2)cn1 [Example 36, 1-(4-{3-[6-(6-Methoxy-pyridin-3-yl)-quinazolin-4-yl]-benzoyl}-2,2-dimethyl-piperazin-1-yl)-ethanone] | 217 nM | 4.5 nM
9 | COc1ncc(-c2ccc3ncnc(-c4cccc(C(=O)N5CCOCC5)c4)c3c2)cc1C#N [Example 30] | 387 nM | 6.67 nM
10 | COc1ncc(-c2ccc3ncnc(-c4cncc(C(=O)N5CCN(C)C(C)(C)C5)c4)c3c2)cc1C [Example 72] | 69.5 nM | 3 nM
11 | COc1ncc(-c2ccc3ncnc(-c4cccc(C(=O)N5CCOC(C)(C)C5)c4)c3c2)cc1C#N [Example 31] | 631 nM | 6 nM
12 | CN1CCN(C(=O)c2cccc(-c3ncnc4ccc(-c5ccc(N)nc5)cc34)c2)CC1 [Example 25] | 184 nM | 7 nM
13 | COc1ccc(-c2ccc3ncnc(-c4cccc(C(=O)N5CCN(C)CC5)c4)c3c2)cc1S(=O)(=O)N1CCOCC1 [Example 21] | 2270 nM | 14.5 nM
14 | COc1ccc(-c2ccc3ncnc(-c4cccc(C(=O)N5CC(C)NC(C)C5)c4)c3c2)cn1 (centres unmarked) [Example 90, (3,5-Dimethyl-piperazin-1-yl)-{3-[6-(6-methoxy-pyridin-3-yl)-quinazolin-4-yl]-phenyl}-methanone] | 181 nM | 5.75 nM
15 | CCOc1ncc(-c2ccc3ncnc(-c4cccc(C(=O)N5CCN(C)CC5)c4)c3c2)cc1C(F)(F)F [Example 42, {3-[6-(6-Ethoxy-5-trifluoromethyl-pyridin-3-yl)-quinazolin-4-yl]-phenyl}-(4-methyl-piperazin-1-yl)-methanone] | 152 nM | 6 nM
16 | CC(=O)N1CCN(C(=O)c2cccc(-c3ncnc4ccc(-c5cc(C#N)c(N)c(C(F)(F)F)c5)cc34)c2)CC1 [Example 10] | > 9100 nM | 27 nM
17 | COc1ncc(-c2ccc3ncnc(-c4cncc(C(=O)N5CCN(C)CC5)c4)c3c2)cc1C#N [Example 56] | 542 nM | 11 nM
18 | COc1ccc(-c2ccc3ncnc(-c4ccc(C)c(C(=O)N5CCN(C(C)=O)CC5)c4)c3c2)cn1 [Example 100, 1-(4-{5-[6-(6-Methoxy-pyridin-3-yl)-quinazolin-4-yl]-2-methyl-benzoyl}-piperazin-1-yl)-ethanone] | 188 nM | 5 nM
19 | COc1ncc(-c2ccc3ncnc(-c4cncc(C(=O)N5CCN(C)CC5)c4)c3c2)cn1 [Example 59] | 1710 nM | 31.5 nM
20 | COc1ncc(-c2ccc3ncnc(-c4cncc(C(=O)N5CCOCC5)c4)c3c2)cn1 [Example 70] | 1030 nM | 30 nM

Row | SMILES | IC50 [1] | IC50 [2]
21 | COc1ccc(-c2ccc3ncnc(-c4cc(C(=O)N5CCN(C(C)=O)CC5)cc(C(F)(F)F)c4)c3c2)cn1 [Example 101, 1-(4-{3-[6-(6-Methoxy-pyridin-3-yl)-quinazolin-4-yl]-5-trifluoromethyl-benzoyl}-piperazin-1-yl)-ethanone] | 1270 nM | 16 nM
22 | COc1ccc(-c2ccc3ncnc(-c4cccc(C(=O)N5CCCN(C)CC5)c4)c3c2)cn1 [Example 92, {3-[6-(6-Methoxy-pyridin-3-yl)-quinazolin-4-yl]-phenyl}-(4-methyl-[1,4]diazepan-1-yl)-methanone] | 196 nM | 3.75 nM
23 | COc1ccc(-c2ccc3ncnc(-c4cncc(C(=O)N5CC(C)NC(C)C5)c4)c3c2)cc1C(F)(F)F (centres unmarked) [Example 80, (3,5-Dimethyl-piperazin-1-yl)-{5-[6-(4-methoxy-3-trifluoromethyl-phenyl)-quinazolin-4-yl]-pyridin-3-yl}-methanone] | 717 nM | 10.5 nM
24 | COc1cc(C(=O)N2CCN(C(C)=O)CC2)cc(-c2ncnc3ccc(-c4cnc(OC)c(C#N)c4)cc23)c1 [Example 105, 5-{4-[3-(4-Acetyl-piperazine-1-carbonyl)-5-methoxy-phenyl]-quinazolin-6-yl}-2-methoxy-nicotinonitrile] | 720 nM | 7 nM
25 | CCN(CC)S(=O)(=O)c1cc(-c2ccc3ncnc(-c4cccc(C(=O)N5CCN(C)CC5)c4)c3c2)ccc1OC [Example 23] | 931 nM | 12.5 nM
26 | COc1ccc(-c2ccc3ncnc(-c4cccc(C(=O)N5CCN(C)CC5)c4)c3c2)cc1C(=O)N(C)C [Example 49, 2-Methoxy-N,N-dimethyl-5-{4-[3-(4-methyl-piperazine-1-carbonyl)-phenyl]-quinazolin-6-yl}-benzamide] | 8950 nM | 35.5 nM
27 | COc1ncc(-c2ccc3ncnc(-c4cccc(C(=O)N5CCS(=O)(=O)CC5)c4)c3c2)cc1C#N [Example 28] | 418 nM | 9 nM
28 | COc1ncc(-c2ccc3ncnc(-c4cccc(C(=O)N5CCN(C(C)=O)C(C)(C)C5)c4)c3c2)cc1C#N [Example 37] | 426 nM | 4 nM
29 | COc1ncc(-c2ccc3ncnc(-c4ccnc(C(=O)N5CCN(C(C)=O)CC5)c4)c3c2)cc1C#N [Example 113, 5-{4-[2-(4-Acetyl-piperazine-1-carbonyl)-pyridin-4-yl]-quinazolin-6-yl}-2-methoxy-nicotinonitrile] | 979 nM | 18 nM
30 | COc1ccc(-c2ccc3ncnc(-c4cc(Cl)cc(C(=O)N5CCN(C(C)=O)CC5)c4)c3c2)cn1 [Example 107, 1-(4-{3-Chloro-5-[6-(6-methoxy-pyridin-3-yl)-quinazolin-4-yl]-benzoyl}-piperazin-1-yl)-ethanone] | 716 nM | 5 nM
31 | CCN1CCN(C(=O)c2cccc(-c3ncnc4ccc(-c5ccc(OC)nc5)cc34)c2)CC1 [Example 86, (4-Ethyl-piperazin-1-yl)-{3-[6-(6-methoxy-pyridin-3-yl)-quinazolin-4-yl]-phenyl}-methanone] | 380 nM | 15.5 nM
32 | COc1ncc(-c2ccc3ncnc(-c4ccnc(C(=O)N5CCN(C(C)=O)CC5)c4)c3c2)cn1 [Example 112, 1-(4-{4-[6-(2-Methoxy-pyrimidin-5-yl)-quinazolin-4-yl]-pyridine-2-carbonyl}-piperazin-1-yl)-ethanone] | 2320 nM | 49 nM
33 | COc1ncc(-c2ccc3ncnc(-c4cccc(C(=O)N5CCN[C@H](C)C5)c4)c3c2)cc1C#N [Example 34, 2-Methoxy-5-{4-[3-((R)-3-methyl-piperazine-1-carbonyl)-phenyl]-quinazolin-6-yl}-nicotinonitrile] | 488 nM | 22.5 nM
34 | COc1ncc(-c2ccc3ncnc(-c4cncc(C(=O)N5CCOC(C)(C)C5)c4)c3c2)cc1C(F)(F)F [Example 61] | 390 nM | 3 nM
35 | COc1ncc(-c2ccc3ncnc(-c4ccc(C)c(C(=O)N5CCN(C(C)=O)CC5)c4)c3c2)cn1 [Example 102, 1-(4-{5-[6-(2-Methoxy-pyrimidin-5-yl)-quinazolin-4-yl]-2-methyl-benzoyl}-piperazin-1-yl)-ethanone] | 770 nM | 11 nM
36 | CC1(C)CN(C(=O)c2cncc(-c3ncnc4ccc(-c5cncc(S(C)(=O)=O)c5)cc34)c2)CCO1 [Example 64] | 583 nM | 11 nM
37 | COc1ccc(-c2ccc3ncnc(-c4cccc(C(=O)N5CCN(C)CC5)c4)c3c2)cc1C(F)(F)F [Example 20] | 2480 nM | 24 nM
38 | COc1ccc(-c2ccc3ncnc(-c4cccc(C(=O)N5C[C@@H]6C[C@H]5CN6)c4)c3c2)cc1C(F)(F)F [Example 39] | 770 nM | 11.5 nM
39 | COc1ccc(-c2ccc3ncnc(-c4ccc(C)c(C(=O)N5CCN(C)CC5)c4)c3c2)cn1 [Example 115, {5-[6-(6-Methoxy-pyridin-3-yl)-quinazolin-4-yl]-2-methyl-phenyl}-(4-methyl-piperazin-1-yl)-methanone] | 888 nM | 42.5 nM
40 | COc1cc(C(=O)N2CCN(C(C)=O)CC2)cc(-c2ncnc3ccc(-c4ccc(OC)nc4)cc23)c1 [Example 106, 1-(4-{3-Methoxy-5-[6-(6-methoxy-pyridin-3-yl)-quinazolin-4-yl]-benzoyl}-piperazin-1-yl)-ethanone] | 440 nM | 5 nM
